The text below walks through data of patent US20230330059A1, “3-PHENYL-2H-CHROMENE DERIVATIVE AND PHARMACEUTICAL COMPOSITION FOR PREVENTING OR TREATING ALZHEIMER'S, CONTAINING SAME” (NEUROBIONET, INC., priority 2020, published 2023).

Structures are written as SMILES. Read-outs that look alike come from different tables or passages of the source.

The target of one experiment is T1, Aβ42 (Homo sapiens, UniProt P05067).
T1 construct: 1,1,1,3,3,3-hexafluoro-2-propanol-treated Aβ42 (# A-1163-1, rPeptide); purchased rPeptide A-1163-1
The experiment is described as follows: Thioflavin T (ThT) assay of Aβ fibrosis. The class given is biochemical. As to conditions: ThT fluorescence, 37° C., 180 minutes; compared to negative control and Daidzein or Equol; FIG. 1. Here is the method:
ThT assay was used to examine whether the drugs have an inhibitory activity against the fibrosis of Aβ. Lyophilized AggreSure AβAS-72216, AnaSpec) was dissolved in cold Tris buffered saline (TBS; pH 7.2) to prepare a 160 µg/mL Aβ solution. The solution was aliquoted into 1.5 mL tubes and stored at -80° C. until use. ThT (# T3516, Sigma-Aldrich) and drug candidates were dissolved in TBS to form a final concentration of 500 µM. The diluted aggregates were added to […] black plates (Nunc # 242764), mixed with ThT and drug candidates, and incubated at 37° C. for 180 minutes. Fluorescence signals were measured every 5 minutes using a plate reader (Victor3, PerkinElmer).

Experiment [1] concerns nitric oxide production in LPS-treated BV2 cells. The experiment in a line: Nitric oxide production (Griess) in LPS-treated BV2 cells. As to conditions: for NO production: LPS-treated BV2 cells, FIG. 4 (lower), 8a; for IC50: Mus musculus, read-out: IC50 (NO production). The class given is cell-based, mouse. Here is the method:
BV2 cells were seeded at a density of 4 x 10^5 cells/well into 96-well plates, and primary microglial cells isolated from the brain of […] ICR mice were seeded at a density of 4 x 10^5 cells/well into 24-well plates.
The culture media were collected and measured for NO production using a Griess reagent solution (1% sulfanilamide and 0.1% N-1-naphthyl ethylenediamine dihydrochloride in 5% phosphoric acid). Briefly, a total of 50 µL of the supernatant was transferred to new 96-well plates and mixed with the same volume of the Griess reagent solution, followed by measuring OD at 570 nm. In addition, the cell viability was assayed in the same manner as in Experimental Example 2.
(In general: Griess reagent forms a coloured azo dye with nitrite.)

Another experiment has as its system IL-6. The experiment in a line: IL-6 production (ELISA) in LPS-treated BV2 cells. The class given is cell-based, mouse. As to conditions: 5 µM, LPS (100 ng/ml) 24 hours, FIG. 10a. Here is the method: (§1) BV2 cells were seeded at a density of 4x10^5 cells/well into 96-well plates and stabilized for 24 hours. Thereafter, the cells were treated with 5 µM of daidzein, o-desmethylangolensin, S-equal, SPA1413, or SPA1426 for 30 minutes and then with LPS (100 ng/ml) for 24 hours at 37° C. The culture medium was collected and quantitatively measured for IL-6 and TNF-a released to the BV2 culture supernatant, using the enzyme immunoassay method […] Enzyme-Linked Immuno Assay (ELISA) kit (R&D systems, Minneapolis, MN, USA). The IL-6 and TNF-a releases from the groups treated with the samples were evaluated relative to that from the LPS-treated group, which was set to be 100%, and the results are depicted in FIGS. 10a and 10b.

A further experiment has as its system TNF-a. The experiment in a line: TNF-a production (ELISA) in LPS-treated BV2 cells. The class given is cell-based, mouse. To be noted: 5 µM, LPS (100 ng/ml) 24 hours, FIG. 10b. Here is the method:
as §1

A further experiment relates to COX-2. The experiment in a line: COX-2 protein expression (western blot) in LPS-treated BV2 cells. The class given is cell-based, mouse. As to conditions: 5 µM, LPS (100 ng/ml) 24 hours, FIG. 11a. Here is the method:
(§2) BV2 cells were aliquoted at a density of 1x10^6 cells/well into 60 mm dishes and stabilized for 24 hours. Thereafter, the cells were treated with 5 µM of S-equal, SPA1413, or SPA1426 for 30 minutes and then with LPS (100 ng/ml) for 24 hours at 37° C. After being cultured to reach 100% confluence, the cells were washed with PBS and lysed with a lysis buffer (PRO-PREP™ Protein Extraction Solution, Intron Biotechnology, Seongnam, Korea). With bovine serum albumin (BSA) serving as a standard, the protein contents of the lysate supernatants were measured by Bio-Rad Protein Assay (Bio-Rad, California, USA) to determine the total protein content in each sample. Afterwards, each of the samples was loaded in a protein amount of 30 µg on a 10-12% SDS-PAGE gel and run for electrophoresis. The electrophorized proteins were transferred to a PVDF membrane which was then blocked with 5% skim milk and incubated with antibodies to COX-2 or iNOS (Cell Signaling Technologies, Massachusetts, USA). Detection was conducted with a ChemiDoc XRS+ imaging system (Bio-Rad, CA, USA).
On the technique in general: In western blotting, separated proteins are transferred to a membrane and probed.

A further experiment relates to iNOS. The experiment in a line: iNOS protein expression (western blot) in LPS-treated BV2 cells. The class given is cell-based, mouse. To be noted: 5 µM, LPS (100 ng/ml) 24 hours, FIG. 11b. Here is the method:
as §2

A further experiment has as its system JNK. The experiment is described as follows: JNK protein expression (western blot) in LPS-treated BV2 cells. As to conditions: 5 µM, compared to the LPS-treated group, FIG. 12a. The class given is cell-based, mouse. Here is the method: as §2, with “JNK” for “COX-2”, “p38” for “iNOS”
For the next experiment, the system named is NGF release in C6 cells. The experiment in a line: Nerve growth factor (NGF) release in C6 cells (ELISA). The class given is cell-based, rat. To be noted: 5 µM, 24 hours, compared to the normal group, FIG. 13. Here is the method:
C6 cells were seeded at a density of 4x10^5 cells/well into 96-well plates and stabilized for 24 hours. Thereafter, the cells were treated with 5 µM of daidzein, o-desmethylangolensin, S-equal, SPA1413, or SPA1426 for 24 hours. The culture medium was collected and quantitatively measured for NGF released to the C6 culture supernatant using the enzyme immunoassay method Competitive Enzyme-Linked Immuno Assay (ELISA) kit (R&D systems, Minneapolis, MN, USA). The NGF releases from the groups treated with the samples were evaluated relative to that from the normal group, which was set to be 100%, and the results are depicted in FIG. 13.
For orientation: An ELISA detects its analyte on a solid surface through an enzyme-linked reagent.

T1 sequence (P05067 672-713 limits assumed): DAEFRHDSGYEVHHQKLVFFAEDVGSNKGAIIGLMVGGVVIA

Turning to `Oc1ccc(C2=Cc3ccc(O)cc3OC2)cc1` [SPA1413, 3-(4-Hydroxyphenyl)-2H-chromen-7-ol], the “inhibition of Aβ42 fibrosis” value against Aβ42 is “showed the effect of inhibiting Aβ42 fibrosis”. Further, the NO production result in experiment [1] is listed as “decreased NO production in dose-dependent manners”. In addition, the concentration for half-maximal inhibition (IC50) (as a rule, the concentration that gives 50% inhibition) in experiment [1] (BV-2, 24 h) turned out to be 5.2 µM. In addition, the IL-6 production result in the experiment with IL-6 is reported as “significantly decreased”. For the same compound, in the experiment on TNF-a, the TNF-a production entry is listed as “significantly decreased”. The “expression level of COX-2” value in the experiment on COX-2 was “significantly decreased”. In addition, the “expression level of iNOS” value in the experiment with iNOS is on record as “significantly decreased”. In addition, the “expression level of JNK protein” value in the experiment on JNK is “decreased”. The NGF content result with NGF release in C6 cells was “significantly increased”.

Take `CCCC(=O)Oc1ccc(C2=Cc3ccc(OC(=O)CCC)cc3OC2)cc1` [SPA1426, 4-(7-(butyryloxy)-2H-chromen-3-yl)phenyl butyrate]: at Aβ42, the “inhibition of Aβ42 fibrosis” value is listed as “showed the effect of inhibiting Aβ42 fibrosis”. Moreover, the NO production result in experiment [1] was “decreased NO production in dose-dependent manners”. The concentration for half-maximal inhibition (IC50) in experiment [1] (BV-2, LPS (100 ng/ml) 24 hours, Griess reagent, cell type not stated in Table 1) was determined as 3.67 µM. For the same compound, the IL-6 production entry with IL-6 is reported as “significantly decreased”. Besides, in the experiment on TNF-a, the TNF-a production entry is on record as “significantly decreased”. Besides, the “expression level of COX-2” value in the experiment on COX-2 was “significantly decreased”. Also, in the experiment on iNOS, the “expression level of iNOS” value is “significantly decreased”. The “expression level of JNK protein” value in the experiment with JNK was “decreased”. Also, in the experiment with NGF release in C6 cells, the NGF content entry is reported as “significantly increased”.
